These results are taken from patent publication US20250275993A1, “GLYCOSYLATION INHIBITORS AS THERAPEUTICS FOR STROKE” (The Regents of the University of California, priority 2022, published 2025).

Series [1] in a line: ManN stability in wound fluid from S. aureus infected mice. In kind it is in vitro ADME, mouse. Particulars: up to 24 hours at 37° C. Here is the method: To test ManN stability in wound fluid collected from mice with skin infection as described below, 1.5 μl of 5% ManN solution was added to each 200 μl wound fluid which was first diluted 1:1 (v/v) with PBS. At each time point, samples were taken from 37° C. incubator and stored at −80° C. Plasma proteins were precipitated by adding ice cold acetonitrile to plasma: acetonitrile 1:3 (v/v) ratio. Samples were kept over ice for 1 hr and then centrifuged at 12000 g for 10 min at 7° C. to form a pellet. Supernatants were transferred to other tubed, dried down on a Speed Vac and then reconstituted in UltraPure distilled water and filtered through pre-washed Nanosep 3K Omega filters (Pall Corporation). The filtrate was dried down on Speed Vac. The dry samples were dissolved in 100 μl of water and 2 μl plasma or wound fluid sample was subjected to HPLC analysis. Neutral and amino sugars were separated on a Dionex CarboPac PAI column 4 mm×250 mm with 4 mm×50 mm guard column. An isocratic gradient of 19 mM sodium hydroxide with 0.95 mM sodium acetate was used at a flow rate of 1 ml/min with 20 min run. Data was collected using the Dionex ICS-3000 HPLC system with pulsed amperometric detector using standard Quad waveform. ManN was identified and quantified by comparison with monosaccharide standard using Thermo Scientific Chromeleon software. No ManN samples served as negative controls. […]

The subject of series [2] is HUVEC. Put plainly: HUVEC scratch assay. In kind it is cell-based, human. Particulars: 40 μM ManN in combination with 50 ng/ml VEGF. Here is the method: BCECs (passage 6-10) and HUVEC (passage 6-8) were used in this assay.
Cells were grown until about 80% confluency in 6-well plates, washed twice with PBS and then starved in serum-free DMEM (low Glucose, Hyclone) for 5 hrs before making a “scratch” using 1 ml tip. Cell monolayers were briefly washed once with serum-free media, followed by various treatments in media containing 1% FBS. 48 hrs later, the assay was stopped by adding 2 ml 4% paraformaldehyde. 20 min later, fixed cells were stained with 1 ml Crystal Violet (Sigma). Plates were washed gently under the running tap water and air-dried before taking pictures. Images were acquired by ZEISS Discovery V8 SteREO microscopy equipped with PixeLINK Megapixel FireWire camera. Quantification of wound closure was done using AxioVision LE Rel.4.4 software. Six images were taken for each sample and six measurements (in pixel) were made on each image using AxioVision LE Re1.4.4 software.

In series [3] the test system is HUVEC. The experiment in a line: HUVEC migration assay. In kind it is cell-based, human. Particulars: 40 μM ManN alone. As to the method:
HUVECs (passage 6-8) were cultured and serum-starved as described in “Western Blots”. Ten thousand cells in […] of EBM-2 medium were then added to the upper chamber of […] pore size cell culture inserts (Falcon) coated with 0.1% gelatin. The lower compartment was filled with […] EBM-2 medium containing various agents. The plates were incubated at 37° C. to allow migration. After 4 hrs, cells were fixed with 4% PFA for 20 min and then stained with crystal violet (Sigma-Aldrich) for 20 min at RT. Migrated cells on the bottom side of the insert membrane were quantified by counting whole area of the insert at 40× magnification. The experiments were carried out in triplicate and repeated three times. BCEC migration was set up similarly, except that wells were coated with FN, cells were suspended in 1% serum media and migration time was 18-24 hrs.

For the compound `N[C@H](C=O)[C@@H](O)[C@H](O)[C@H](O)CO` [ManN, 2-Amino-2-deoxy-D-mannose], the “loss of free ManN in wound fluid” value in series [1] was “No significant loss”. For the same compound, the HUVEC wound closure entry in series [2] was “stimulation of migration and wound closure”. In series [3], the HUVEC migration result is “stimulation of migration and wound closure”.
